In one assay the test system is blood cholesterol level. Kind of assay: Test B: measurement of the hypocholesterolaemic effect in rodents. In kind it is in vivo, male Wistar rats. As to conditions: Rattus norvegicus; oral, cholesterol-fed rats (2.5% cholesterol, 8 days), 24 hours and 4 hours before sacrifice; read-out: 25% effective dose (ED25), quantity of compound which lowers the blood cholesterol level by 25%. The protocol: Test B: measurement of the hypocholesterolaemic effect in rodents; male Wistar rats weighing 200-220 g are subjected to a diet enriched with 2.5% of cholesterol for 8 days; on the last two days, they are treated orally with the test product, 24 hours and 4 hours before being sacrificed by exsanguination: the blood cholesterol level is evaluated on an aliquot fraction of serum by an automated enzymatic method. The results are expressed in the form of a 25% effective dose (ED25) in mg per kg of animal body weight, which represents the quantity of compound which lowers the blood cholesterol level by 25%.

Assay [1] relates to intestinal absorption of cholesterol. Put plainly: Test C: measurement of the inhibition of intestinal absorption of cholesterol in rats. In kind it is in vivo, Wistar male rats. As to conditions: Rattus norvegicus; oral, fasted rats, Triton WR-1339 i.v., [^3 H]cholesterol orally; read-out: 50% effective dose (ED50), quantity of compound which inhibits intestinal absorption of cholesterol by 50%. The protocol:
Test C: measurement of the inhibition of intestinal absorption of cholesterol in rats; Wistar male rats weighing 230-250 g, fasted for 24 hours, are treated simultaneously with the test product administered orally and with Triton WR-1339 administered i.v.; one hour later, they are treated again orally with [^3 H]cholesterol; three hours later, under ether anaesthesia, 1 ml of blood is withdrawn from their retro-orbital sinus: the blood radioactivity, evaluated on 0.1 ml of serum, represents the measure of the absorption of the [^3 H]cholesterol administered. The results are expressed in the form of a 50% effective dose (ED50) in mg per kg of animal body weight, which represents the quantity of compound which inhibits intestinal absorption of cholesterol by 50%.

The target of another assay is T1, aortic ACAT (Oryctolagus cuniculus, UniProt A0A5F9CPP4).
T1 construct: the aorta is removed, dissected and homogenised in order to prepare the microsomal fraction by ultracentrifugation; from tissue; host or cells: aorta microsomes of cholesterol-fed male New Zealand rabbits
T1 sequence (A0A5F9CPP4 1-555): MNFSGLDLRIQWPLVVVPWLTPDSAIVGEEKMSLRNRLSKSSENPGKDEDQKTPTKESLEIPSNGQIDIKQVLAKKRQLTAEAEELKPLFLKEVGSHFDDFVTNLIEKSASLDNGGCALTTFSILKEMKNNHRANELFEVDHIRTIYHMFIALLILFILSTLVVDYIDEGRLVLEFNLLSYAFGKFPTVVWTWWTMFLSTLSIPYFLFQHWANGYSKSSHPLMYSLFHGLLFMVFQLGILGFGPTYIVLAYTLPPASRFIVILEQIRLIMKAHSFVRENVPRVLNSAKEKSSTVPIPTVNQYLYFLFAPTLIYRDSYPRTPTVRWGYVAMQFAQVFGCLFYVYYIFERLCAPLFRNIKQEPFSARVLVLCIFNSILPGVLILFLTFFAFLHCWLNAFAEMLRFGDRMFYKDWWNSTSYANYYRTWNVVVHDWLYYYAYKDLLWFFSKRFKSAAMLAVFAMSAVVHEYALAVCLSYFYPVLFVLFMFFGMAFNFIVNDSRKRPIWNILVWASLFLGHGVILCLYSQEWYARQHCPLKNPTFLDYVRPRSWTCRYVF
Kind of assay: Test A: measurement of the inhibition of aortic ACAT in vitro in rabbits. As to conditions: rabbit aortic microsomes, [^14 C]oleoylcoenzyme A, read-out: 50% inhibitory concentration (IC50), concentration of compound which inhibits the ACAT activity by 50%. In kind it is biochemical, male New Zealand rabbits. The protocol:
Test A: measurement of the inhibition of aortic ACAT in vitro in rabbits; male New Zealand rabbits weighing between 2.2 and 2.5 kg, subjected beforehand for 15 days to a diet enriched with 1.25% of cholesterol, are sacrificed by cervical dislocation; the aorta is removed, dissected and homogenised in order to prepare the microsomal fraction by ultracentrifugation; these microsomes are incubated in the presence of [^14 C]oleoylcoenzyme A according to the method described by P. J. GILLIES et al., Exp. and Mol. Pathol., 1986, 44, 329-339; the lipids are extracted from the incubate with a methanol/chloroform mixture and the [^14 C]oleoylcholesterol is separated by TLC: the latter compound represents the measure of the ACAT activity, and the results are expressed in the form of a 50% inhibitory concentration (IC50), representing the concentration of compound which inhibits the ACAT activity by 50%.

Here are results for one compound from patent publication US5338849A, “Azaindoles, preparation processes and medicinal products containing them” (Lipha, Lyonnaise Industrielle Pharmaceutique, priority 1992, dated 1994).

By ED50 is commonly meant the dose that gives a 50% effect, or the effect in half of the subjects.

Consider `CC(C)c1cccc(C(C)C)c1NC(=O)NCC1(n2ccc3cccnc32)CCCC1` [compound no. 1, N^1-[1-(7-azaindol-1-yl)cyclopentylmethyl]-N^2-(2,6-diisopropylphenyl)urea], for which the ED25 in the assay with blood cholesterol level came out at 0.202 mg/kg. Further, the ED50 in assay [1] came to 0.056 mg/kg. Moreover, the IC50 on aortic ACAT worked out at 160 nM.
